Measured values reported in US20080255099A1 (priority 2004, published 2008).
Like-named read-outs stand apart in the source and are kept apart here.

Legend:
tumor growth = settings: tumor-bearing mice; Kung et al. 2004; cited from earlier work
HeLa = HeLa cells; T. Saito et al. 1985; cited from earlier work
VEGF promoter = assay: Luciferase assay for inhibition of the VEGF promoter in Hep3B-VEGF Luciferase cells; type: cell-based, human; settings: deferoxamine 100 μM, 18-20 h, read-out: IC50 for inhibition of luciferase signal (VEGF promoter)
[1] = molecular target: T1, Biot-Hif-1α^786-826/GST-p300^323/423 (Homo sapiens, UniProt Q09472); assay: Inhibition of Hif-1α/p300 interaction, DELFIA fluorescence assay; type: binding; settings: for inhibition of the interaction between Hif-1α and p300 (in words): fluorescency assay adapted from Freedman et al.
T1 construct: the p300 region comprised between the 323-423 aminoacids; made in house; host or cells: E. coli BL21 (DE3), vector pGEX-4T-1

secreted VEGF = assay: Secreted VEGF ELISA test in Hep3B-VEGF Luciferase cells under deferoxamine-induced hypoxia; type: cell-based, human; settings: deferoxamine 100 μM, 18-20 h, read-out: IC50 for inhibition of secreted VEGF (ELISA)

T1 sequence (Q09472 323-423): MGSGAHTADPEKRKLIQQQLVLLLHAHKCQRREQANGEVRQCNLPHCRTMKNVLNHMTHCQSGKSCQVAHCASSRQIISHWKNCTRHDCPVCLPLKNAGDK

CN1C(=O)[C@]2(Cc3cn(C45C[C@@]67SS[C@@](CO)(C(=O)N6[C@H]4Nc4ccccc45)N(C)C7=O)c4ccccc34)SS[C@@]1(CO)C(=O)N2C (stereo partly shown) [chaetomin]
tumor growth and hypoxia-induced transcription in the tumor (in words) (tumor growth): inhibits hypoxia-induced transcription in the tumor and tumor growth

CN1C(=O)[C@]23SS[C@@]1(CO)C(=O)N2[C@H]1Nc2ccccc2C1([C@@]12c4ccccc4N[C@@H]1N1C(=O)[C@]4(CO)SS[C@]1(C(=O)N4C)[C@H]2O)[C@@H]3O (stereo partly drawn) [11α,11α′-dihydroxy Chaetocin, reference compound]
cytotoxic activity IC50 (HeLa): about 0.03 μg/mL

gliotoxin
IC50 (VEGF promoter): 50 nM
inhibition of the interaction between Hif-1α and p300 (in words) [1]: able to inhibit the interaction between Hif-1α and p300
IC50 (secreted VEGF): 200 nM

CN1C(=O)[C@@]23CC4([C@]56C[C@@]78SS[C@@](CO)(C(=O)N7[C@H]5Nc5ccccc56)N(C)C8=O)c5ccccc5N[C@@H]4N2C(=O)[C@]1(CO)SS3 (stereo partly shown) [chaetocin]
IC50 (VEGF promoter; Homo sapiens): 40 nM
IC50 [1]: 12500 nM
inhibition of the interaction between Hif-1α and p300 (in words) [1]: able to inhibit the interaction between Hif-1α and p300
IC50 (secreted VEGF; Homo sapiens): 100 nM
cytotoxic activity IC50 (HeLa): about 0.03 μg/mL
